Laboratory results reported in patent US11752188B2, “Compositions and methods for nutritional supplements” (DailyColors Health Inc., priority 2020, dated 2023).
Like-named read-outs stand apart in the source and are kept apart here. Values belong to the molecule of their own block, whether it stands above or below them.

Legend:
[1] = target: T1, recombinant human CD73 (Homo sapiens, UniProt P21589); experiment: CD73 in vitro enzymatic assay (colorimetric 630 nm); format: biochemical; details: TABLE 89
T1 construct: purchased BPS Bioscience 71184 (enzyme); kit #72055
T1 sequence (P21589 27-549): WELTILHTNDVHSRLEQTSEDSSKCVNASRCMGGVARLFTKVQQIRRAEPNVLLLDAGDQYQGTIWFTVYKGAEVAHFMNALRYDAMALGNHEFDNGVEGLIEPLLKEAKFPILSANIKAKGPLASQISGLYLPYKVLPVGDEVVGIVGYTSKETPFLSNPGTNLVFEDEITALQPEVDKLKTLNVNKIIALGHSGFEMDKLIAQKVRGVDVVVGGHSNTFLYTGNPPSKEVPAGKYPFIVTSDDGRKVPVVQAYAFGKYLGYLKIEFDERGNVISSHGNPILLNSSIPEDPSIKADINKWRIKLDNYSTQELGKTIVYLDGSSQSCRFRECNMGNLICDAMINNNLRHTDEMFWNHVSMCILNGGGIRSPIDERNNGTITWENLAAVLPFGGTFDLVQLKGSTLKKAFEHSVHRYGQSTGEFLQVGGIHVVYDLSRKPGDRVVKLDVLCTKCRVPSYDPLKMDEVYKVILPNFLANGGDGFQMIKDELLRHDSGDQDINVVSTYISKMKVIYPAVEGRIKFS
Description: Here, D5 is the Yellow Blend, D9 is the Purple Blend, D21 is the Green Blend, D13 is the Red Blend, and D31 is CBD. As before, the red blend included Apple Extract, Pomegranate Extract, Tomato Powder, Beet; the green blend included Olive Extract, Rosemary Extract, Green Coffee Bean Extract, Kale; the orange/yellow blend included Onion Extract, Ginger Extract, Grapefruit Extract, Carrot; and the purple/blue blend included Grape, Blueberry Extract, Currant, Elderberry.
Assay Conditions: In general, all assays points were done by following the CD39 and CD73 Inhibitor Screening Assay Kit protocol (BPS Bioscience, #79278 and 72055, respectively). The CD73 enzymatic reactions were conducted in duplicate at room temperature for 30 minutes in a 50 μl mixture containing assay buffer, […], CD73 enzymes, and the test compound. Test compounds were preincubated with the enzyme for 30 minutes. Reactions were started by addition of the substrate. The 50 μl reactions were carried out in a 96-well transparent plate. After enzymatic reactions, 100 μl of Colorimetric Detection Reagent was added to the reaction mix. After a 15 minutes incubation, absorbance was measured using a Tecan plate reader at 630 nm.
Data Analysis: Enzyme activity assays were performed in duplicates at each concentration. The Absorbance intensity data were analyzed and compared. In the absence of the compound, the intensity in each data set was defined as 100% (Ce) activity. In the absence of enzyme, the intensity in each data set was defined as 0% (C0) activity.

[2] = target: T2, recombinant human CD39 (Homo sapiens, UniProt P49961); experiment: CD39 in vitro enzymatic assay (ATP, colorimetric 630 nm); format: biochemical;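 further: test compound preincubated 30 min with enzyme, then 30 min reaction with ATP at room temperature, absorbance after detection reagent, 100% activity without compound, 0% without enzyme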
T2 construct: purchased BPS Bioscience 71284 (enzyme); kit #79278
T2 sequence (P49961 1-510): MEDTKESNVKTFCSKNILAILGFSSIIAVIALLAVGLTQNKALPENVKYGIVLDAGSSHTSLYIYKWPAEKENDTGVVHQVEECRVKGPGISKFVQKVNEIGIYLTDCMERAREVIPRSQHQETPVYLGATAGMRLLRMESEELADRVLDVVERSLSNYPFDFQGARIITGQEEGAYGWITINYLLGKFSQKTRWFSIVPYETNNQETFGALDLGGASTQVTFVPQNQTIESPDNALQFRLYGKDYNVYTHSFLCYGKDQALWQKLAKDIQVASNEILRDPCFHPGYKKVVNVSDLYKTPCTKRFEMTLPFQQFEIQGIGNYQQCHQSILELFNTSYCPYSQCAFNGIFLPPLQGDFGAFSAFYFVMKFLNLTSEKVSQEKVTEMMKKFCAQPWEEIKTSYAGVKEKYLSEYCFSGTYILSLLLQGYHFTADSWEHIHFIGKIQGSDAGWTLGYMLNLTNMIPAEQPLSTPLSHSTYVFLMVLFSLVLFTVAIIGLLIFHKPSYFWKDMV
Description: The CD39 enzymatic reactions were conducted in duplicate at room temperature for 30 minutes in a 50 μl mixture containing assay buffer, ATP, CD39 enzymes, and the test compound. Test compounds were preincubated with the enzyme for 30 minutes. Reactions were started by addition of the substrate. The 50 μl reactions were carried out in a 96-well transparent plate. After enzymatic reactions, 100 μl of Colorimetric Detection Reagent was added to the reaction mix. After a 15 minutes incubation, absorbance was measured using a Tecan plate reader at 630 nm.

- Net absorbance Rep. 1 ([1]; 1 μM): 0.40
- Net absorbance Rep. 2 ([1]; 1 μM): 0.36
- inhibition at 1 µM ([1]; 1 μM): 13%
- activity at 1 µM ([1]; 1 μM, read-out: Activity (%) Rep. 1): 92%
- activity at 1 µM ([1]; 1 μM, read-out: Activity (%) Rep. 2): 82%
- Net absorbance Rep. 1 ([1]; 10 μM): 0.23
- Net absorbance Rep. 2 ([1]; 10 μM): 0.25
- inhibition at 10 µM ([1]; 10 μM): 44%
- activity at 10 µM ([1]; 10 μM, read-out: Activity (%) Rep. 1): 53%
- activity at 10 µM ([1]; 10 μM, read-out: Activity (%) Rep. 2): 58%
- Net absorbance Rep. 1 ([1]; 100 μM): 0.12
- Net absorbance Rep. 2 ([1]; 100 μM): 0.08
- inhibition at 100 µM ([1]; 100 μM): 78%
- activity at 100 µM ([1]; 100 μM, read-out: Activity (%) Rep. 1): 27%
- activity at 100 µM ([1]; 100 μM, read-out: Activity (%) Rep. 2): 17%
Molecule: O=c1c(O)c(-c2ccc(O)c(O)c2)oc2cc(O)cc(O)c12 [Quercetin]

- Activity (%) Rep. 1 ([2]; 0.001 μM, TABLE 79): 79%
- Activity (%) Rep. 2 ([2]; 0.001 μM, TABLE 79): 78%
- CD39 Inhibition (%) ([2]; 0.001 μM, TABLE 79): 21%
- Net absorbance Rep. 1 ([2]; 0.001 μM, TABLE 79): 0.42
- Net absorbance Rep. 2 ([2]; 0.001 μM, TABLE 79): 0.41
- Activity (%) Rep. 1 ([2]; 0.001 μM, TABLE 80): 99%
- Activity (%) Rep. 2 ([2]; 0.001 μM, TABLE 80): 90%
- Inhibition (%) ([2]; 0.001 μM, TABLE 80): 5%
- Net absorbance Rep. 1 ([2]; 0.001 μM, TABLE 80): 0.281
- Net absorbance Rep. 2 ([2]; 0.001 μM, TABLE 80): 0.254
- Activity (%) Rep. 1 ([2]; 0.001 μM, TABLE 81): 96%
- Activity (%) Rep. 2 ([2]; 0.001 μM, TABLE 81): 92%
- Inhibition (%) ([2]; 0.001 μM, TABLE 81): 6%
- Net absorbance Rep. 1 ([2]; 0.001 μM, TABLE 81): 0.51
- Net absorbance Rep. 2 ([2]; 0.001 μM, TABLE 81): 0.49
- Activity (%) Rep. 1 ([2]; 0.001 μM, TABLE 83): 86%
- Activity (%) Rep. 2 ([2]; 0.001 μM, TABLE 83): 89%
- Inhibition (%) ([2]; 0.001 μM, TABLE 83): 13%
- Net absorbance Rep. 1 ([2]; 0.001 μM, TABLE 83): 0.25
- Net absorbance Rep. 2 ([2]; 0.001 μM, TABLE 83): 0.26
- Activity (%) Repeat 1 ([2]; 0.001 μM, TABLE 85): 85%
- Activity (%) Repeat 2 ([2]; 0.001 μM, TABLE 85): 89%
- Inhibition (%) ([2]; 0.001 μM, TABLE 85): 13%
- Net Signal (Absorbance) Repeat 1 ([2]; 0.001 μM, TABLE 85): 0.27
- Net Signal (Absorbance) Repeat 2 ([2]; 0.001 μM, TABLE 85): 0.29
- Activity (%) Rep. 1 ([2]; 0.01 μM, TABLE 79): 49%
- Activity (%) Rep. 2 ([2]; 0.01 μM, TABLE 79): 56%
- CD39 Inhibition (%) ([2]; 0.01 μM, TABLE 79): 47%
- Net absorbance Rep. 1 ([2]; 0.01 μM, TABLE 79): 0.26
- Net absorbance Rep. 2 ([2]; 0.01 μM, TABLE 79): 0.30
- Activity (%) Rep. 1 ([2]; 0.01 μM, TABLE 80): 54%
- Activity (%) Rep. 2 ([2]; 0.01 μM, TABLE 80): 51%
- Inhibition (%) ([2]; 0.01 μM, TABLE 80): 47%
- Net absorbance Rep. 1 ([2]; 0.01 μM, TABLE 80): 0.154
- Net absorbance Rep. 2 ([2]; 0.01 μM, TABLE 80): 0.145
- Activity (%) Rep. 1 ([2]; 0.01 μM, TABLE 81): 36%
- Activity (%) Rep. 2 ([2]; 0.01 μM, TABLE 81): 37%
- Inhibition (%) ([2]; 0.01 μM, TABLE 81): 64%
- Net absorbance Rep. 1 ([2]; 0.01 μM, TABLE 81): 0.19
- Net absorbance Rep. 2 ([2]; 0.01 μM, TABLE 81): 0.20
- Activity (%) Rep. 1 ([2]; 0.01 μM, TABLE 83): 67%
- Activity (%) Rep. 2 ([2]; 0.01 μM, TABLE 83): 66%
- Inhibition (%) ([2]; 0.01 μM, TABLE 83): 33%
- Net absorbance Rep. 1 ([2]; 0.01 μM, TABLE 83): 0.20
- Net absorbance Rep. 2 ([2]; 0.01 μM, TABLE 83): 0.19
- Activity (%) Repeat 1 ([2]; 0.01 μM, TABLE 85): 65%
- Activity (%) Repeat 2 ([2]; 0.01 μM, TABLE 85): 68%
- Inhibition (%) ([2]; 0.01 μM, TABLE 85): 34%
- Net Signal (Absorbance) Repeat 1 ([2]; 0.01 μM, TABLE 85): 0.21
- Net Signal (Absorbance) Repeat 2 ([2]; 0.01 μM, TABLE 85): 0.22
- Activity (%) Rep. 1 ([2]; 0.1 μM, TABLE 79): 14%
- Activity (%) Rep. 2 ([2]; 0.1 μM, TABLE 79): 19%
- CD39 Inhibition (%) ([2]; 0.1 μM, TABLE 79): 84%
- Net absorbance Rep. 1 ([2]; 0.1 μM, TABLE 79): 0.08
- Net absorbance Rep. 2 ([2]; 0.1 μM, TABLE 79): 0.10
- Activity (%) Rep. 1 ([2]; 0.1 μM, TABLE 80): 26%
- Activity (%) Rep. 2 ([2]; 0.1 μM, TABLE 80): 26%
- Inhibition (%) ([2]; 0.1 μM, TABLE 80): 74%
- Net absorbance Rep. 1 ([2]; 0.1 μM, TABLE 80): 0.073
- Net absorbance Rep. 2 ([2]; 0.1 μM, TABLE 80): 0.073
- Activity (%) Rep. 1 ([2]; 0.1 μM, TABLE 81): 16%
- Activity (%) Rep. 2 ([2]; 0.1 μM, TABLE 81): 10%
- Inhibition (%) ([2]; 0.1 μM, TABLE 81): 87%
- Net absorbance Rep. 1 ([2]; 0.1 μM, TABLE 81): 0.08
- Net absorbance Rep. 2 ([2]; 0.1 μM, TABLE 81): 0.06
- Activity (%) Rep. 1 ([2]; 0.1 μM, TABLE 83): 30%
- Activity (%) Rep. 2 ([2]; 0.1 μM, TABLE 83): 29%
- Inhibition (%) ([2]; 0.1 μM, TABLE 83): 70%
- Net absorbance Rep. 1 ([2]; 0.1 μM, TABLE 83): 0.09
- Net absorbance Rep. 2 ([2]; 0.1 μM, TABLE 83): 0.09
- Activity (%) Repeat 1 ([2]; 0.1 μM, TABLE 85): 39%
- Activity (%) Repeat 2 ([2]; 0.1 μM, TABLE 85): 38%
- Inhibition (%) ([2]; 0.1 μM, TABLE 85): 61%
- Net Signal (Absorbance) Repeat 1 ([2]; 0.1 μM, TABLE 85): 0.13
- Net Signal (Absorbance) Repeat 2 ([2]; 0.1 μM, TABLE 85): 0.13
Molecule: POM-1
